We go through 44 compounds from patent US12350270B2, “Antimalarial agents” (Merck Sharp & Dohme LLC, priority 2019, dated 2025).

Molecules are shown by their SMILES.

The subject of the assay is parasites (ring stage, in human red blood cell culture). Nature of the assay: Parasite LDH growth assay (antiparasite potency, Parasite Assay). The class given is cell-based, Plasmodium falciparum. Particulars: 0.7% rings, 2% haematocrit, 72 hours at 37° C., LDH readout of parasite growth. The method, then: Assessing Antiparasite Potency in a Parasite LDH Growth Assay (Parasite Assay)
The parasite stock was maintained at 4% haematocrit in RPMI-Hepes media buffered with sodium bicarbonate and supplemented with 5% heat inactivated human serum and 0.5% albumax.
On the day of assay set up, a blood smear of the parasite culture was Giemsa stained and counted. The parasitemia was adjusted to 0.7% rings and the haematocrit was diluted to 2% in RPMI-Hepes media buffered with sodium bicarbonate and supplemented with 5% heat inactivated human serum and 0.5% albumax. 30 ul of diluted parasites are then added into 10 ul of media+compound in pre-prepared Greiner TC assay plates. Parasite assay plates were placed in gassed humidified boxes in single layer and allowed to incubate at 37° C. for 72 hours. After 72 hours growth, assay plates are sealed with parafilm and frozen flat, in single file at −80° C. overnight. On the following day, assay plates are allowed to thaw at room temperature for 4 hours to which an LDH assay is performed to measure parasite growth.

Setting [1] is: Plasmodium falciparum, Erythrocyte, 72 h.

In the case of `CCC1(CC)CC(=O)N([C@@H]2CCOc3ccc(C(=O)NC4c5ccccc5OCC4O)cc32)C(=N)N1` (single isomer, unassigned) [Example 8A], the EC50 (in general, the concentration giving half of the maximal effect) was 10 nM. On the same count and under the same terms, with `CCC1(CC)CC(=O)N([C@@H]2CCOc3ccc(C(=O)NC4c5ccccc5OCC4O)cc32)C(=N)N1` (single isomer, unassigned) [Example 8B] the figure was 22 nM; with `CCC1(CC)CC(=O)N([C@@H]2CCOc3ccc(C(=O)NC4c5ccccc5OCC4O)cc32)C(=N)N1` (single isomer, unassigned) [Example 8C], 120 nM. The same measure, in the same setting: with `CCC1(CC)CC(=O)N([C@@H]2CCOc3ccc(C(=O)NC4c5ccccc5OCC4O)cc32)C(=N)N1` (single isomer, unassigned) [Example 8D] the figure was 86 nM; with `CCC1C[C@@H](N2C(=N)NC(CC)(CC)CC2=O)c2cc(C(=O)N[C@@H]3c4ccccc4C[C@H]3O)ccc2O1` (single isomer, unassigned) [Example 9A], 0.9 nM; with `CCC1C[C@@H](N2C(=N)NC(CC)(CC)CC2=O)c2cc(C(=O)N[C@@H]3c4ccccc4C[C@H]3O)ccc2O1` (single isomer, unassigned) [Example 9B], 170 nM. Turning to `CC(C)[C@]1(C)CC(=O)N([C@@H]2CCOc3ccc(C(=O)NC4c5ccccc5OC(C)(C)C4O)cc32)C(=N)N1` (single isomer, unassigned) [Example 11A], it took 0.9 nM to reach a half-maximal effect under setting [1] (EC50). Compound `CCC1C[C@@H](N2C(=N)NC(CC)(CC)CC2=O)c2cc(C(=O)NC3c4ccccc4OC(C)(C)C3O)ccc2O1` (single isomer, unassigned) [Example 13A] gave a concentration for a half-maximal effect (EC50) of 0.8 nM.

For the compound `CCC1(CC)CC(=O)N([C@@H]2CC(COC)Oc3ccc(C(=O)N[C@H]4CC(C)(C)Oc5ccccc54)cc32)C(=N)N1` (single isomer, unassigned) [Example 16A], a half-maximal response (EC50) required 0.6 nM. The compound `CCC1(CC)CC(=O)N([C@@H]2CC(COC)Oc3ccc(C(=O)N[C@H]4CC(C)(C)Oc5ccccc54)cc32)C(=N)N1` (single isomer, unassigned) [Example 16B] displayed an EC50 of 95 nM. Compound `CCC1(CC)CC(=O)N([C@@H]2CC(COC)Oc3ccc(C(=O)N[C@@H]4c5ccccc5C[C@H]4O)cc32)C(=N)N1` (single isomer, unassigned) [Example 17A] had an EC50 under setting [1] of 2.7 nM. Consider `CCC1(CC)CC(=O)N([C@@H]2CCOc3ccc(C(=O)N[C@@H]4c5ccccc5OC(C(F)(F)F)C4O)cc32)C(=N)N1` (single isomer, unassigned) [Example 32A], for which the EC50 amounted to 7.9 nM. The same measure, in the same setting: to `CCC1(CC)CC(=O)N([C@@H]2CCOc3ccc(C(=O)N[C@@H]4c5ccccc5OC(C(F)(F)F)C4O)cc32)C(=N)N1` (single isomer, unassigned) [Example 32B] belongs 290 nM.

For the compound `CCC1(CC)CC(=O)N([C@@H]2CC(C)(C)Oc3ccc(C(=O)N[C@@H]4c5ccccc5CC4(C)O)cc32)C(=N)N1` (single isomer, unassigned) [Example 42A], the EC50 came to 1 nM.

Take `CCC1(CC)CC(=O)N([C@@H]2CC(C)(C)Oc3ccc(C(=O)N[C@@H]4c5ccccc5CC4(C)O)cc32)C(=N)N1` (single isomer, unassigned) [Example 42B]: the EC50 came to 3.2 nM.

For `CC(C)[C@]1(C)CC(=O)N([C@@H]2CC(C)(C)Oc3ccc(C(=O)N[C@@H]4c5ccccc5CC4(C)O)cc32)C(=N)N1` (single isomer, unassigned) [Example 43A], the midpoint of the response, the EC50, lay at 8.1 nM.

`CC(C)[C@]1(C)CC(=O)N([C@@H]2CC(C)(C)Oc3ccc(C(=O)N[C@@H]4c5ccccc5CC4(C)O)cc32)C(=N)N1` (single isomer, unassigned) [Example 43B] returned an EC50 of 21 nM.

Under setting [1], `CCC1(CC)CC(=O)N([C@@H]2CCOc3ccc(C(=O)N[C@@H]4c5ccccc5CC4(C)O)cc32)C(=N)N1` (single isomer, unassigned) [Example 44A] registered an EC50 of 1.5 nM. Consider `CCC1(CC)CC(=O)N([C@@H]2CCOc3ccc(C(=O)N[C@@H]4c5ccccc5CC4(C)O)cc32)C(=N)N1` (single isomer, unassigned) [Example 44B], for which the EC50 came out at 2.8 nM. Turning to `CC1(C)CC(=O)N([C@@H]2CC(C)(C)Oc3ccc(C(=O)N[C@@H]4c5ccccc5CC4(C)O)cc32)C(=N)N1` (single isomer, unassigned) [Example 54A], under setting [1], the EC50 worked out at 190 nM. Regarding `CC1(C)CC(=O)N([C@@H]2CC(C)(C)Oc3ccc(C(=O)N[C@@H]4c5ccccc5CC4(C)O)cc32)C(=N)N1` (single isomer, unassigned) [Example 54B], the EC50 is 160 nM. Still for that read-out and setting: with `CCC1(CC)C[C@@H](N2C(=N)NC(C)(C)CC2=O)c2cc(C(=O)N[C@@H]3c4ccccc4CC3(C)O)ccc2O1` (single isomer, unassigned) [Example 55A] the figure was 24.5 nM; with `CCC1(CC)C[C@@H](N2C(=N)NC(C)(C)CC2=O)c2cc(C(=O)N[C@@H]3c4ccccc4CC3(C)O)ccc2O1` (single isomer, unassigned) [Example 55B], 83.1 nM.

As to `CCC1(CC)CC(=O)N([C@@H]2CCOc3ccc(C(=O)N[C@H]4c5ccccc5OCC4(C)O)cc32)C(=N)N1` (single isomer, unassigned) [Example 60A], the EC50 under setting [1] is 1.3 nM.

`CCC1(CC)CC(=O)N([C@@H]2CCOc3ccc(C(=O)N[C@H]4c5ccccc5OCC4(C)O)cc32)C(=N)N1` (single isomer, unassigned) [Example 60B] registered an EC50 of 1.7 nM. Turning to `CCC1(CC)CC(=O)N([C@@H]2CCOc3ccc(C(=O)NC4c5ccccc5OC4(C)COC)cc32)C(=N)N1` (single isomer, unassigned) [Example 64A], the response was half-maximal at 12 nM (EC50). `CCC1(CC)CC(=O)N([C@@H]2CCOc3ccc(C(=O)NC4c5ccccc5OC4(C)COC)cc32)C(=N)N1` (single isomer, unassigned) [Example 64B] showed an EC50 of 0.9 nM. Same read-out and setting: with `CCC1(CC)CC(=O)N([C@@H]2CCOc3ccc(C(=O)NC4c5ccccc5OC4(C)COC)cc32)C(=N)N1` (single isomer, unassigned) [Example 64C] the figure was 64 nM; with `CCC1(CC)CC(=O)N([C@@H]2CCOc3ccc(C(=O)NC4c5ccccc5OC4(C)COC)cc32)C(=N)N1` (single isomer, unassigned) [Example 64D], 42 nM. Take `CCOC(=O)C1(C)Oc2ccccc2C1NC(=O)c1ccc2c(c1)[C@H](N1C(=N)NC(CC)(CC)CC1=O)CCO2` (single isomer, unassigned) [Example 65A]: the EC50 was found to be 68 nM. The compound `CCOC(=O)C1(C)Oc2ccccc2C1NC(=O)c1ccc2c(c1)[C@H](N1C(=N)NC(CC)(CC)CC1=O)CCO2` (single isomer, unassigned) [Example 65B] registered an EC50 of 2.6 nM. Still for that read-out and setting: to `CCOC(=O)C1(C)Oc2ccccc2C1NC(=O)c1ccc2c(c1)[C@H](N1C(=N)NC(CC)(CC)CC1=O)CCO2` (single isomer, unassigned) [Example 65C] belongs 26 nM; to `CCC1(CC)CC(=O)N([C@H]2c3cc(C(=O)N[C@@H]4c5ccccc5OC(C)(C)[C@H]4O)ccc3OC2(C)COC)C(=N)N1` (single isomer, unassigned) [Example 73A], 0.3 nM.

In the case of `CCC1(CC)CC(=O)N([C@H]2c3cc(C(=O)N[C@@H]4c5ccccc5OC(C)(C)[C@H]4O)ccc3OC2(C)COC)C(=N)N1` (single isomer, unassigned) [Example 73B], the EC50 was found to be 1.7 nM. Same read-out and setting: to `CCC1(CC)CC(=O)N([C@H]2c3cc(C(=O)N[C@H]4CC(C)(C)Oc5ccccc54)ccc3O[C@]2(C)COC)C(=N)N1` (single isomer, unassigned) [Example 74A] belongs 0.3 nM. On the same count and under the same terms, with `CCC1(CC)CC(=O)N([C@H]2c3cc(C(=O)N[C@H]4CC(C)(C)Oc5ccccc54)ccc3O[C@]2(C)COC)C(=N)N1` (single isomer, unassigned) [Example 74B] the figure was 6.5 nM; with `CCC1(CC)CC(=O)N([C@@H]2CCOc3ccc(C(=O)NC4c5ccccc5OC4(C)C)cc32)C(=N)N1` (single isomer, unassigned) [Example 133A], 1.4 nM. Still for that read-out and setting: to `CCC1(CC)CC(=O)N([C@@H]2CCOc3ccc(C(=O)NC4c5ccccc5OC4(C)C)cc32)C(=N)N1` (single isomer, unassigned) [Example 133B] belongs 17 nM; to `CCC1(CC)CC(=O)N([C@@H]2CCOc3ccc(C(=O)NC4c5ccccc5OC4(C)CO)cc32)C(=N)N1` (single isomer, unassigned) [Example 176A], 29.2 nM.

Compound `CCC1(CC)CC(=O)N([C@@H]2CCOc3ccc(C(=O)NC4c5ccccc5OC4(C)CO)cc32)C(=N)N1` (single isomer, unassigned) [Example 176C] showed an EC50 of 2.4 nM. For `CCC1(CC)CC(=O)N([C@@H]2CCOc3ccc(C(=O)NC4c5ccccc5OC4(C)CO)cc32)C(=N)N1` (single isomer, unassigned) [Example 176D], it took 114 nM to reach a half-maximal effect (EC50). Turning to `CCC1(CC)CC(=O)N(C2c3cc(C(=O)N[C@@H]4c5ccccc5C[C@H]4O)ccc3OC2(C)CO)C(=N)N1` (single isomer, unassigned) [Example 178A], the EC50 was 108 nM. `CCC1(CC)CC(=O)N(C2c3cc(C(=O)N[C@@H]4c5ccccc5C[C@H]4O)ccc3OC2(C)CO)C(=N)N1` (single isomer, unassigned) [Example 178B]: the midpoint of the response, the EC50, lay at 2.2 nM. The same measure, in the same setting: with `CC[C@]1(C)CC(=O)N(C2CC(C)Oc3ccc(C(=O)N[C@@H]4c5ccccc5OC[C@@]4(C)O)cc32)C(=N)N1` (single isomer, unassigned) [Example 181A] the figure was 189 nM.
